Experimental data: patent publication US7304171B2, “Compounds and methods for cytoprotection” (Migenix Corp., priority 2004, dated 2007)

Tested on: rd1 mutant mice retinas (retinal photoreceptors)
Assay: Murine rd1 retinal explant model for retinitis pigmentosa: photoreceptor cytoprotection in vitro
Format: cell-based, mouse
Conditions: 1 μM
Source text: Retinas were dissected at postnatal day 7 from rd1 mutant mice (Bowes et al., 1990 Nature 347:677; Frasson et al., 1999 Nat. Med. 5:1183), which carry a spontaneous cGMP phosphodiesterase mutation in retinal rod photoreceptors, leading to rapid and premature rod cell apoptosis in this animal model for the ophthalmic degenerative disease retinitis pigmentosa (RP); control retinas were from the background strain (C3H). Retinas were mounted flat on nitrocellulose membranes attached to culture dish inserts and maintained in serum-free R16 culture medium for 21 days, reflecting a stage corresponding to postnatal day 28 (Caffe et al., 2001 J. Chem. Neuroanat. 22:263). […] Slides containing the sections were coded and scored using light microscopy, by counting the rows of photoreceptors in the outer nuclear layer of the retina for five fields from each section. […] Typically, six sections from each preparation were scored, representing different cutting depths, and the collected averages from the six slides were averaged to yield an average value of remaining rows of retinal photoceptors per retina, which value was used for statistical analysis. Data were analyzed by Student's paired t-test; ratios were also calculated of treated:untreated retinas from each intra-animal pair and analyzed by Student's one-group t-test, with the population mean set to 1.0.

CO/N=C1\CCC2C3CCc4cc(O)c(C56CC7CC(CC(C7)C5)C6)cc4C3CC[C@]12C (some centres unmarked) [compound 5]
No. Rows Photoreceptors (rd1 retinal explant, 21 days of culture, n = 4, paired t-test p = 0.038 vs contralateral DMSO control (1.87 ± 0.11)): 2.11 ± 0.13
Treated:Untreated (ratio of photoreceptor rows, treated:untreated retina of each intra-animal pair, 21 days, 1-group t-test p = 0.144): 1.10 ± 0.10
